Consider three molecules from patent US5665714A, “N-substituted glycerophosphoethanolamines” (Clarion Pharmaceuticals Inc., priority 1996, dated 1997).

Structures are written as SMILES. A value given as a limit tells only on which side of the number the result lay.

The test system of test [1] is tumor. Conditions: Andreesen, Prog. Biochem. Pharmacol. 22, 118-131; cited from earlier work.
Test [2] deals with PAF (Platelet Activating Factor)-induced increase in TPR (Total Pulmonary Resistance). Kind of test: Assay for anti-PAF activity in anesthetized guinea pigs (PAF-induced increase in total pulmonary resistance). The format is in vivo, guinea pig. Conditions: for PAF-induced increase in TPR, % of Controls: n = 5, PAF Control 112.2. How it is done: FIG. 5 is a graphical representation of results from an in vivo antagonism of PAF (Platelet Activating Factor)-induced increase in TPR (Total Pulmonary Resistance) by the compound of the invention, designated CPR 3003.
Assay for Anti-PAF Activity in Anesthetized Guinea Pigs
Guinea pigs of 650-1000 g were used in order to facilitate catheterization of the jugular vein and carotid artery. The guinea pigs were anesthetized with 35-45 mg/kg pentobarbital sodium. When or if the recordings described below were unstable, anesthetic additions were made during the course of the intervention. The cutdown was a ventral medial incision over the cervical area so that the trachea, jugular vein and carotid artery could be cannulated. The animals were immediately attached to a volume regulated Harvard® rodent respirator, Model 683, via a tracheostomy and the respirator was set at 60 respirations per minute and a volume of 8 ml/kg to maintain a normal arterial PCO2 of approximately 40 mm Hg. Pancuronium bromide, a muscle relaxant, was then given intravenously at a dose of 0.2 mg/kg to prevent spontaneous breathing. A tube was connected to the respirator pump and the endotracheal catheter was attached to a pressure-transducing strain gauge and then to a 2-channel Gilson® physiological recorder. One channel of the recorder inscribed the pressure tracing from the airway; the second channel inscribed the pressure tracing from a similar strain gauge attached directly to a catheter inserted into the carotid artery. These two parameters were measured before and after each drug was given and at each increment in the dose response studies with each drug candidate and recorded. Total pulmonary resistance (TPR) was calculated as the difference between the expiratory pressure and inspiratory pressures with a constant volume.
After the anesthetic and muscle relaxant were given, the animal was allowed to stabilize. The airway was gently suctioned with a syringe and the lungs are briefly inflated by closing the expiratory port on the ventilator until the pressure was approximately three times resting pressure. When the pressure returned to a steady state, this TPR was considered control pressure. The dose-related increases or decreases were quantitated against these controls to determine the percent inhibition of PAF activity. Two doses of PAF were given as controls before the test compound was administered.
Decreases of TPR in a dose-related way indicate an inhibition of the constrictor activity of PAF on the airway.

Test [3] concerns HT-29 human colon carcinoma cell line. Kind of test: in vitro HT 29 cell inhibition assay (anti-tumor/antineoplastic activity, sulforhodamine B). The format is cell-based. Conditions: HT-29, 48 hours, 0 to 100 μM, FIG. 2, read-out: marked inhibition of cell growth at concentrations above. The source says:
FIG. 2 is a graphical representation of results from an in vitro HT 29 cell inhibition assay of two compounds of the invention, designated CPR 3003 and CPR 3004.
(§1) Assay for Anti-Tumor/Antineoplastic Activity
(§2) 1. Human tumor cell lines, available from the American Type Culture Collection (ATCC):
b. HT-29 (ATCC HTB 38): a human colon carcinoma cell line (attachment dependent).
b. for cell line 1-b: 1:1 DMEM and Ham's F-12 (DMEM/F12) plus 10% FBS.
(§3) 3. Standard protocol for culturing cell lines: in T-75 or T-150 flasks; 37° C.; 95% air, 5% CO2; 100% humidity.
(§4) a. Cell lines 1-a and 1-b are passaged when approximately 80% confluent; with trypsin (1 mg/mL) and EDTA (1 mM EDTA in Ca-Mg free Hank's balanced salt solution); at a 1:4 to 1:5 split.
b. All procedures are performed aseptically in a Class II biological safety cabinet using standard BL-2 containment procedures. […]
(§5) h. Read absorbance at 564 nm using a standard 96-well microtiter plate reader. Absorbance readings are linear with dye concentrations below 1.8 absorbance units. To reduce absorbance, decrease wavelength at which measurements are taken.
(§6) a. For a single point reading, a higher absorbance indicates a higher cell number; […]
(§7) d. Calculate CN (cell number as % of Control): [formula] where A(test compound) is absorbance with test compound present in the culture medium, A(control) is absorbance of control, and A(background) is absorbance of background;

Test [4] deals with PAM-212 murine keratinocyte cell line. Kind of test: Assay for anti-psoriatic activity by inhibition of keratinocyte proliferation (PAM-212). The format is cell-based, murine (BALB/c mice). Conditions: Mus musculus, PAM212; PAM-212, 48 hours, FIG. 3; read-out: marked inhibition of keratinocyte-proliferation at concentrations above. The text has this:
FIG. 3 is a graphical representation of results from an in vitro PAM-212 cell inhibition assay of two compounds of the invention, designated CPR 3003 and CPR 3004.
Assay for Anti-psoriatic Activity by Inhibition of Keratinocyte Proliferation
1. Cell line: PAM-212 murine keratinocyte cell line isolated and cultivated from newborn BALB/c mice (see S. H. Yuspa et al., Cancer Research, 40, 4694-4703, December, 1980) that appears to retain many characteristics of normal keratinocytes.
2. Culture medium: 1:1 DMEM and Ham's F-12 with 10% FBS.
3. Culture conditions are the same as those described previously in parts 3(a) and 3(b) of Example 9.
4. Methodology is the same as that described previously in part 4 of Example 9, except that, with reference to part 4 (b), cell concentration is adjusted to 1,000 cells per 100 μL (rather than 5,000 cells per 100 μL), and, with reference to part 4(e), test compounds are diluted in DMEM/F12 prior to addition to cell wells.
5. End point determination and data analysis are done as described previously in parts 5 and 6 of Example 9.

The subject of test [5] is RAW 264.7 murine monocyte/macrophage line. Kind of test: Assay for anti-inflammatory activity by inhibition of macrophage chemiluminescence (RAW 264.7, PMA, luminol). The format is cell-based. Conditions: 1 minute. The source says:
FIG. 4 is a graphical representation of results from an in vitro RAW 264.7 cell macrophage inhibition chemiluminescence assay of two compounds of the invention, designated CPR 3003 and CPR 3004.
Assay for Anti-inflammatory Activity by Inhibition of Macrophage Chemiluminescence
The RAW 264.7 cell line (available from the ATCC under accession no. TIB 71) is a murine monocyte/macrophage line the cells of which show many of the differentiative functions of a macrophage. Like macrophages, the cells are capable of phagocytosis and undergo a respiratory burst (increased oxygen consumption) and production of oxygen radicals (e.g., superoxide) in response to appropriate activation signals. Agents that inhibit the activation of these cells in vitro, so as to inhibit the respiratory burst and corresponding production of oxygen radicals associated with the activation, are therefore inhibitors of macrophage activation and critical steps in inflammatory processes. These agents are likely, then, to be anti-inflammatories.
The respiratory burst and corresponding production of oxygen radicals that accompany macrophage activation can be measured in a variety of ways, including chemiluminescence based on the reaction of the oxygen radicals with luminol added to the culture medium (see M. A. Trush et al, 1978, "The Generation of Chemiluminescence by Phagocytic Cells." Methods in Enzymology 57: 462-494). Indeed, chemiluminescence generated from luminol in the culture medium of macrophage cell lines is recognized in the art as a marker of macrophage activation.
1. Cell line: RAW 264.7 (ATCC TIB 71);
2. Culture medium: DMEM with 10% FBS (attachment dependent);
3. Standard protocol for culturing cell lines: in T-75 or T-150 flasks; 37° C.; 95% air, 5% CO2; 100% humidity;
4. Cell lines are passaged when approximately 80% confluent with trypsin (1 mg/mL) and EDTA ([…] in Ca-Mg free Hank's balanced salt solution), at a 1:4 to 1:5 split;
5. Trypsinize the cells and count with a hemocytometer;
6. Adjust concentration of cells to approximately 1,000,000 cells per mL;
7. Suspend cells in DMEM lacking phenol red and without FBS;
8. Pipette 1 mL, into a standard luminometer cuvet (12×75), commercially available from Analytical Luminescence Laboratories (San Diego, Calif.);
9. Add luminol to final concentration of 1 μM;
10. Add test compound at concentrations of 0, 1, 3, 10, or 30 μM;
11. Add 100 nanograms of phorbol myristate acetate (PMA);
12. Wait 1 minute and read photo counts (i.e., luminescence) on a Monolight 2010 luminometer available from Analytical Luminescence Laboratories;
13. The results are represented in FIG. 4, which illustrates the marked decrease in measured luminescence by the compounds tested at concentrations above 1 μM. Results are calculated as percent of control (no test compound present);
14. The results are also presented in Table 1, which tabulates the measured luminescence units at the indicated concentration of tested compound.

Test [6] deals with MDA-MB-231 estrogen receptor negative human breast carcinoma cell line. Kind of test: in vitro MDA-MB-231 cell inhibition assay (anti-tumor/antineoplastic activity, sulforhodamine B). Conditions: MDA-MB-231, 48 hours, 0 to 100 μM, FIG. 1, read-out: marked inhibition of cell growth at concentrations above. The class given is cell-based.
Excerpt: FIG. 1 is a graphical representation of results from an in vitro MDA-MB-231 cell inhibition assay of two compounds of the invention, designated CPR 3003 and CPR 3004.
as §1, §2
a. MDA-MB-231 (ATCC HTB 26): an estrogen receptor negative human breast carcinoma cell line (attachment dependent); and
a. for cell line 1-a: Dulbecco's Modified Eagle's Medium (DMEM) plus 10% Fetal Bovine Serum (FBS); and
as §3, §4
b. […]
as §5, §6, §7

With `CCCCCCCCCCCCCCCCCCOC[C@H](COP(=O)([O-])OCC[N+](C)(C)C)OC` [ET 18-OCH3, 1-O-octadecyl-2-O-methyl-sn-glycero-3-phosphocholine], in test [1], the anti-tumor activity result is recorded as “markedly potent anti-tumor activity”.

For the molecule `CCCCCCCCCCCCCCCCCCOCC(COP(=O)(O)OCCNC1=NCCN1C1=NCCN1)OC` (stereo not shown) [CPR 3003, 1-O-n-octadecyl-2-O-methyl-glycero-3-phospho-N-[3-(2-imidazolinyl)-2-imidazolinyl]-ethanolamine], the “PAF-induced increase in TPR, % of Controls” value in test [2] (1 μM) was 110 % of Controls; in test [2] (10 μM), 7 % of Controls; in test [2] (.1 μM), 232.2 % of Controls. For the same molecule, the “change of PAF-induced increase in TPR” value in test [2] (incremental doses of 0.1, 1, and 10 μM) is recorded as “change the PAF-induced increase in TPR in all animals”. Also, the minimal effective concentration was > 3 µM in test [3], > 10 µM in test [4] and > 3 µM in test [6]. Further, the measured luminescence in test [5] (1 μM test compound) is 2,051,640 Luminescence Units; in test [5] (3 μM test compound) it was 755,617 Luminescence Units; in test [5] (10 μM test compound) it was 224,213 Luminescence Units; in test [5] (30 μM test compound) it was 18,228 Luminescence Units.

`CCCCCCCCCCCCCCCCCCOCC(COP(=O)(O)OCCNC1=NCCN1)OC` (stereo not shown) [CPR 3004, 1-O-n-octadecyl-2-O-methyl-glycero-3-phospho-N-(2-imidazolinyl)-ethanolamine]: the figures for the minimal effective concentration in test [3], in test [4] and in test [6] were > 3 µM, > 10 µM and > 3 µM, respectively. The measured luminescence is on record as 524,414 Luminescence Units in test [5] (1 μM test compound), 134,836 Luminescence Units in test [5] (3 μM test compound), 23,849 Luminescence Units in test [5] (10 μM test compound) and 6,128 Luminescence Units in test [5] (30 μM test compound).
